16 compounds from US9221827B2, “Antimicrobial compounds and methods of making and using the same” (Melinta Therapeutics, Inc., priority 2011, dated 2015) can be followed below.

The test deals with Escherichia coli strain ATCC25922. Nature of the test: standard microdilution assay to determine minimum inhibitory concentrations (MICs). Format: cell-based. Particulars: Escherichia coli strain ATCC25922, standard microdilution assay. Summed up:
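MICs come from CLSI-guided microdilution in 100 μl, run alongside reference-strain performance standards. Values appear as "+" or "−" relative to 16 micrograms/ml, with "N/A" marking missing data.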
(In broth dilution the organism is exposed to a series of concentrations in liquid medium.)
`C[C@H](N)CCCc1cc(SC(F)(F)F)c(Cl)c(-c2cc3cn(-c4ccc([C@@H](C)N)cc4)c(=O)nc3[nH]2)c1` [Compound 409]: the “E. coli ATCC25922 MIC” value is on record as “− (a “−” indicates that the compound has an MIC value greater than 16 micrograms/ml)”.
The value for `C[C@H](NCCCNC(=N)N)c1ccc(-n2cc3cc(-c4cc(CC[C@@H](C)N)cc(C(F)(F)F)c4)[nH]c3nc2=O)cc1` [Compound 410] was “+ (a “+” indicates that the compound has an MIC value of 16 micrograms/ml or less)”; that for `C[C@H](NCCCNC(=N)N)c1ccc(-n2cc3cc(-c4cc(CC[C@@H](C)N)cc(Cl)c4F)[nH]c3nc2=O)cc1` [Compound 411] was “+ (a “+” indicates that the compound has an MIC value of 16 micrograms/ml or less)”; that for `CCC[C@H](NCCCNC(=N)N)c1ccc(-n2cc3cc(-c4cc(CCC[C@H](C)N)cc(Cl)c4F)[nH]c3nc2=O)cc1` [Compound 415] was “+ (a “+” indicates that the compound has an MIC value of 16 micrograms/ml or less)”.
In the case of `CCC[C@H](NCCCNC(=N)N)c1ccc(-n2cc3cc(-c4cc(CCC[C@H](C)N)cc(SC(F)(F)F)c4)[nH]c3nc2=O)cc1` [Compound 416] it was “+ (a “+” indicates that the compound has an MIC value of 16 micrograms/ml or less)”.
For the compound `C[C@H](N)CCCc1cc(-c2cc3cn(-c4ccc([C@H](C)NCCCNC(=N)N)cc4)c(=O)nc3[nH]2)cc2c1CCCC2` [Compound 417], the “E. coli ATCC25922 MIC” value is “+ (a “+” indicates that the compound has an MIC value of 16 micrograms/ml or less)”.
As to `CC(N)C(C)OCc1cc(OC(F)(F)F)cc(-c2cc3cn(-c4ccc(CNCCCNC(=N)N)cc4)c(=O)nc3[nH]2)c1` (stereo not shown) [Compound 418], the “E. coli ATCC25922 MIC” value is listed as “+ (a “+” indicates that the compound has an MIC value of 16 micrograms/ml or less)”.
Turning to `CC(NCCCNC(=N)N)c1ccc(-n2cc3cc(-c4cc(COC(C)C(C)N)cc(OC(F)(F)F)c4)[nH]c3nc2=O)cc1` (stereo not shown) [Compound 419], the “E. coli ATCC25922 MIC” value is “+ (a “+” indicates that the compound has an MIC value of 16 micrograms/ml or less)”.
For the compound `COC[C@H](N)CCCc1cc(SC(F)(F)F)cc(-c2cc3cn(-c4ccc(CNCCCNC(=N)N)cc4)c(=O)nc3[nH]2)c1` [Compound 424], the “E. coli ATCC25922 MIC” value is “+ (a “+” indicates that the compound has an MIC value of 16 micrograms/ml or less)”.
In the case of `CCC[C@H](NCCCNC(=N)N)c1ccc(-n2cc3cc(-c4cc(CCC[C@H](C)N)cc(C(F)(F)F)c4)[nH]c3nc2=O)cc1` [Compound 427] it was “+ (a “+” indicates that the compound has an MIC value of 16 micrograms/ml or less)”; in that of `C[C@H](N)CCCc1cc(-c2cc3cn(-c4ccc([C@H](C)NCCCNC(=N)N)cc4)c(=O)nc3[nH]2)cc(Cl)n1` [Compound 428], “+ (a “+” indicates that the compound has an MIC value of 16 micrograms/ml or less)”.
Turning to `CC(C)Cc1cc(CCC[C@H](C)N)cc(-c2cc3cn(-c4ccc(CNCCCNC(=N)N)cc4)c(=O)nc3[nH]2)c1F` [Compound 431], the “E. coli ATCC25922 MIC” value is “+ (a “+” indicates that the compound has an MIC value of 16 micrograms/ml or less)”.
For the compound `CC(C)Cc1cc(CCC[C@H](C)N)cc(-c2cc3cn(-c4ccc([C@H](C)NCCCNC(=N)N)cc4)c(=O)nc3[nH]2)c1F` [Compound 432], the “E. coli ATCC25922 MIC” value is “+ (a “+” indicates that the compound has an MIC value of 16 micrograms/ml or less)”.
As for `CC(C)[C@H](NCCCNC(=N)N)c1ccc(-n2cc3cc(-c4cc(CCC[C@H](C)N)cc(Cl)c4F)[nH]c3nc2=O)cc1` [Compound 433], the “E. coli ATCC25922 MIC” value was “+ (a “+” indicates that the compound has an MIC value of 16 micrograms/ml or less)”.
For the compound `C[C@H](N)CCCc1cc(-c2cc3cn(-c4ccc([C@H](C)NCCCNC(=N)N)cc4)c(=O)nc3[nH]2)cc(C(C)(C)C)c1` [Compound 434], the “E. coli ATCC25922 MIC” value is “+ (a “+” indicates that the compound has an MIC value of 16 micrograms/ml or less)”.
As to `N=C(N)NCCCNCc1ccc(-n2cc3cc(-c4cc(OC(F)(F)F)cc(C5CCC(CN)O5)c4)[nH]c3nc2=O)cc1` (stereo not shown) [Compound 435], the “E. coli ATCC25922 MIC” value was “+ (a “+” indicates that the compound has an MIC value of 16 micrograms/ml or less)”.
